In US20220257552A1, “METHODS OF PRESCREENING AND TREATING BREAST CANCERS WITH SELECTIVE ANDROGEN RECEPTOR MODULATORS” (priority 2021, published 2022):

Assays:
HCI-7 PDX = test: HCI-7 (HCI-007) patient-derived xenograft in NSG mice; format: in vivo
Description: HCI-007 tumor pieces (1 mm^3) were implanted surgically (one per mouse) under the skin on the flanks of NSG mice. Simultaneously, 17β-estradiol pellet (Innovative Research of America) was implanted surgically under the skin of each mouse. Tumors were allowed to grow and reach approximately 100 mm^3 volume (1*W*W*0.526). […] Tumor volume was measured weekly and represented as % change in tumor volume (FIG. 32). Mice were sacrificed and tumors stored for further analysis.
All animal protocols were approved by The University of Tennessee Health Science Center (UTHSC) Institutional Animal Care and Use Research Committee. Xenograft experiments were performed as previously published (Narayanan et al. (2014) PLoS One 9, e103202). Briefly, 3 million MCF-7 cells were suspended in 0.05 ml MEM+10% FBS and 0.05 ml Matrigel/nude mouse and were injected subcutaneously. Once the tumor size reached 100-200 mm^3, the animals were randomized and treated orally with the indicated drugs formulated in DMSO:PEG-300 (15:85). HCI-7, HCI-9, and HCI-13 PDXs were gifts kindly donated by Dr. Alana Welm (Huntsman Cancer Institute, Salt Lake City, Utah). HCI PDX tumor fragments (1 mm^3) were surgically implanted under the mammary fat pad in female NOD SCID Gamma (NSG) mice. Tumor volume was measured twice weekly for MCF-7 xenograft and once or twice weekly for HCI PDXs. At the end of the study, animals were sacrificed and tumors were excised, weighed, and stored for various analyses.
From the several PDXs available, three AR-positive PDXs were identified, based on gene expression profile. […] The enzalutamide dose was selected based on previous published experiments (Park et al. (2016) Cancer Invest 34, 517-520; Pollock et al. (2016) Nat Chem Biol 12, 795-801) as well as from internal experiments conducted in prostate cancer xenografts and in Hershberger studies.

[1] = Completed and ongoing clinical studies, tolerability; format: in vivo, human; settings: single doses up to 100 mg, multiple doses up to 30 mg once daily up to 14 days
From the text: (§1) These include: 1. Protocol G100401, a Phase 1 single ascending dose study in 96 healthy, young, male volunteers; 2. Protocol G100402, a Phase 1 multiple ascending dose study in 50 healthy, young, male volunteers, and 23 elderly male volunteers with truncal obesity; 3. Protocol G100503, a Phase 1 single dose pharmacokinetic study to assess the effect of a dosage regimen that simulates a sustained release formulation to an immediate release formulation in 18 healthy, young male volunteers and 18 postmenopausal women; 4. Protocol G100506, a Phase 1 single dose pharmacokinetic study to assess the relative bioavailability of a 3 mg hard shell capsule formulation to be used during continued clinical development and to assess the effect of food on the pharmacokinetics of the 3 mg softgel formulation in 27 healthy, young, male volunteers; 5. Protocol 006, a Phase 1 single dose and multiple dose pharmacokinetic study in 24 postmenopausal, Japanese women; 6. Protocol G200501, a Phase 2 study in 60 postmenopausal women and 60 elderly men to assess lean body mass and physical function; 7. Protocol 003, a Phase 1b study in 44 postmenopausal women; 8. Protocol G200502, a Phase 2b study in 159 men and postmenopausal women with cancer to assess lean body mass and physical function; 9.

[2] = Phase 3 trials in non-small cell lung cancer (muscle wasting); format: in vivo, human; settings: 3 mg daily
From the text: as §1, with “8.” for “8. Protocol G200502, a Phase 2b study in 159 men and postmenopausal women with cancer to assess lean body mass and physical function; 9.”

[3] = tested on: breast cancer specimens obtained from patients; test: Breast cancer patient specimens, ex vivo sponge culture; format: cell-based, human
Description: Specimens from breast cancer patients were collected with patient consent under a protocol approved by the UTHSC Institutional Review Board (IRB). Specimens were collected immediately after surgery in RPMI medium containing penicillin:streptomycin and Fungizone and transported to the laboratory on ice. The tissues were finely minced and treated with collagenase for 2 hours.
HCI-13 tumors grown in female mice were allowed to reach 500-1000 mm^3 before the animals were sacrificed and the tumors were excised to be used for sponge culture. Patient specimens frozen in liquid nitrogen in freezing medium were used for sponge culture. […] Tumors were sliced into small pieces (˜1 mm^3) and incubated on pre-soaked gelatin sponges (5 fragments/sponge) in 12 well plates containing 1.5 mL medium (MEM+10% FBS+2 mM L-glutamine+10 μg/mL insulin+10 μg/mL hydrocortisone+penicillin:streptomycin). The cultures were performed in triplicates for HCI-13 and singly for patient specimens. Pooled samples (n=5/sponge) from each sponge constituted one sample. Tissues were harvested after 3 days of treatment, RNA extracted, and expression of various genes measured. Although the same procedure was adopted for specimens obtained from breast cancer patients, the specimens were cultured singly (n=5/sponge=one sample) and not in triplicates as performed for HCI-13.
Like other cancers, breast cancer is also heterogeneous in its genomic profile as well as in its response to treatments. […] Three days after treatment, RNA was isolated from the tissues and expression of ER- and AR-target genes was measured.

C[C@](O)(COc1ccc(C#N)cc1)C(=O)Nc1ccc(C#N)c(C(F)(F)F)c1 [Formula IX, (S)—N-(4-Cyano-3-(trifluoromethyl)phenyl)-3-(4-cyanophenoxy)-2-hydroxy-2-methylpropanamide]
tumor growth (HCI-7 PDX; 10 mg/kg Formula IX, 30 mg/kg enzalutamide, orally): inhibited significantly
tumor weights at end of study (HCI-7 PDX; 10 mg/kg orally): significantly smaller
tumor growth (% change in tumor volume) (HCI-7 PDX; Formula IX 10 mg/kg, enzalutamide 20 mg/kg, orally, vs vehicle): grew slowly
tolerability [1]: generally well-tolerated
lean body mass [2]: increased
specimens in which AR agonist activity was observed ([3]; 1 μM): 4 of 8
specimens in which ER function was inhibited ([3]; 1 μM Formula IX, 100 nM fulvestrant, 3 days): 3 of 8
